Where two headings read alike, the source gives them in different places.
System: M. tuberculosis H37Rv-GFP
Assay: microbe, parasite or virus in culture
Format: cell-based, Mycobacterium tuberculosis
Details: Mycobacterium tuberculosis, H37RV, Macrophage
[1] = read-out: Primary QIM % Inhibition
[2] = read-out: QIM Confirm % Inhibition 20 uM
[3] = confirmation, 20 uM, intracellular, read-out: QIM Confirm % Inhibition 20 uM
[4] = primary screen, 20 μM, intracellular, read-out: Primary QIM % Inhibition

SMILES	inhibition at 20 µM [1] [%]	inhibition at 20 µM [2] [%]	inhibition at 20 µM [3] [%]	inhibition at 20 µM [4] [%]
CC(C)CNC(=O)c1cc([N+](=O)[O-])cc([N+](=O)[O-])c1 [IPK 000 046 78]	73.3	88.9	–	–
CC(NC(=O)c1cc([N+](=O)[O-])cc([N+](=O)[O-])c1)c1ccccc1 (stereo not drawn) [IPK 000 046 80]	76.9	64.6	–	–
O=C(NC1CCCCCC1)c1cc([N+](=O)[O-])cc([N+](=O)[O-])c1 [IPK 000 046 83]	75.8	61.7	–	–
O=C(c1cc([N+](=O)[O-])cc([N+](=O)[O-])c1)N1CCc2ccccc2C1 [IPK 000 046 86]	26.6	40.8	–	–
CCCCNC(=O)c1cc([N+](=O)[O-])cc([N+](=O)[O-])c1 [IPK 000 046 87]	74.4	56.3	–	–
O=C(Nc1ccc(Cl)c(Cl)c1)c1ccco1 [IPK 000 048 49]	84.5	92.9	–	–
Cc1ccc(NC(=O)c2ccc(CSC3=NCCS3)cc2)c(C)c1 [IPK 000 125 15]	–	–	88.7	87.1
Cc1ccc(NC(=O)c2ccc(CSc3ccccn3)cc2)c(C)c1 [IPK 000 125 22]	–	–	82	75.4
Cc1ccc2nc(-c3ccc(NC(=O)CN4CCCC4)cc3)sc2c1 [IPK 000 125 61]	–	–	85.8	44.1
O=C(CCc1ccccc1)N1CCN(Cc2ccccc2)CC1 [IPK 000 126 73]	–	–	60.8	85.7
C/C(=N/c1ccc(S(=O)(=O)N2CCOCC2)cc1)Nc1ccc(C(=O)O)c(O)c1 [IPK 000 128 37]	–	–	26.5	43.8
Cc1ccsc1/C=C1/SC(N2CCCCC2)=NC1=O [IPK 000 129 72]	–	–	75.4	61.8
Cc1ccn2cc(-c3ccc(F)cc3)nc2c1 [IPK 000 129 91]	–	–	38.2	-36
O=c1c(/C=N/Cc2ccco2)c(NCc2ccco2)nc2ccccn12 [IPK 000 130 26]	–	–	29.9	66.3
COc1cccc(C(CC(=O)c2ccc(Cl)cc2)C(C#N)C#N)c1 (stereo not drawn) [IPK 000 130 54]	–	–	65.8	66.7
COc1cc2ccccc2cc1C(=O)Nc1nccs1 [IPK 000 133 02]	–	–	37.2	-44.8
O=C(NCCC1=CCCCC1)C(=O)Nc1cccc(F)c1 [IPK 000 133 46]	–	–	94.4	69.6
CCC1=NN(C(=O)c2ccncc2)C(O)(C(F)(F)F)C1 (stereo not drawn) [IPK 000 134 50]	–	–	101	99.7
CCc1ccc(C2(O)CC(C(F)(F)F)=NN2C(=O)c2ccncc2)cc1 (stereo not drawn) [IPK 000 134 51]	–	–	102	90.2
CS(=O)(=O)c1nc(-c2ccc(Br)cc2)n[nH]1 [IPK 000 134 62]	–	–	25.5	-56.1
CS(=O)(=O)c1nc(-c2ccc(Cl)cc2)n[nH]1 [IPK 000 134 63]	–	–	12.6	-18.3
O=C(c1ccc([N+](=O)[O-])o1)N1CCN(Cc2ccccc2)CC1 [IPK 000 135 28]	–	–	26.6	53.3
CCOc1cc(/C=N\NC(=O)COc2ccc(C(C)C)cc2)ccc1O [IPK 000 138 40]	–	–	86.4	75
CC(C)c1ccc(OCC(=O)N/N=C\c2ccccc2OCC(=O)O)cc1 [IPK 000 138 43]	–	–	78.9	76.3
